# Experimental data published in US20070203141A1 (BOEHRINGER INGELHEIM PHARMACEUTICALS, INC., priority 2001, published 2007).
# “And” between values parts separate entries of the source, which are not always exact repeats. Equal values may be shown once.
# How the values were obtained:
# [1] = system: TNFα release, human whole blood; experiment: TNFα release from LPS stimulated human whole blood; type: cell-based
# plasma TNFα production = experiment: Cynomolgus monkey endotoxin model, IV dosing just prior to LPS challenge; type: in vivo; details: vs vehicle
# Source text: (§1) As a surrogate model for man, we developed an endotoxin model in the cynomolgus monkey to examine the effect of p38 MAPK inhibitors on modulating TNFα production.
# [2] = Twice daily for 14 days Phase I study, safety; type: in vivo, human; details: for Subjects with transaminase values above the upper limit of normal: preliminary analysis, placebo 2
# Description: (§2) This study was a Phase I, randomized, double-blind, placebo-controlled, multiple-dose trial to investigate the safety and pharmacokinetics of 15 or 30 mg of an orally available p38MAPK inhibitor administered twice daily compared to placebo for 14 days. Subjects were 49 healthy males, 16 per treatment group (one subject on placebo was discontinued). […] Based on preliminary analysis of this study, 9 of 48 subjects had transaminase values above the upper limit of normal (UNL), 2 in the placebo, 3 in the 15 mg dose group and 4 in 30 mg dose group. Three subjects experienced ALT rises 2-3 fold greater than UNL, one in each dose group. […] There were no relevant changes in other laboratory studies, EKGs or physical examinations.
# TNFα production [3] = experiment: Cynomolgus monkey endotoxin model, duration of action, PO chewable tablets 12 hours prior to LPS; type: in vivo; details: for Inhibition of TNFα production: vs placebo; for Peak plasma level: cynomolgus monkey
# Source text: as §1
# TNFα production [4] = experiment: Human endotoxemia trial, LPS-induced TNFα production; type: in vivo; details: for Inhibition of LPS-induced TNFα production: human, vs placebo
# Source text: Intravenous administration of endotoxin represents a safe, well-defined model of acute inflammation in humans. It is also an excellent tool to study the mechanisms contributing to inflammatory responses in man in vivo.
# The endotoxin (LPS) was obtained from: Escherichia coli LPS (lot G; United States Pharmacopoeial Convention, Rockville, Md. USA).
# Percent inhibition was obtained by calculating the percent difference between the median peak plasma pharmacodynamic endpoint concentrations of the placebo group and the maximum endpoint concentration achieved by each individual. […] [formula]
# [5] = Twice daily for 14 days Phase I study, pharmacokinetics; type: in vivo; details: human
# Description: as §2
# [6] = system: PMN (neutrophil) activation in human whole blood; experiment: Once daily for 7 days study, ex vivo TNFα or fMLP induced activation state of PMN (Mac-1/Lselectin ratio); type: in vivo
# Description: (§3) This was a randomized, double-blind, placebo-controlled (2:6 ratio per dose group), multiple dose (20, 50 and 150 mg) study to assess pharmacokinetics, pharmacodynamics, safety and tolerability using a tablet formulation administered once a day for one week. Safety was determined by adverse events, laboratory tests, and physical examination. Kinetics were assessed by measuring plasma levels of drug and pharmacodynamics was assessed ex vivo by the effects of LPS induced production of TNFα, and the TNFα or fMLP induced activation state of PMN in human whole blood as measured by the ratio of Mac-1/Lselectin cell surface expression. Twenty-four healthy male volunteers (mean age 30 years, mean weight 76 kg) were studied. […] Two subjects receiving the 150 mg dose developed acne. There were no clinically significant changes in laboratory assessments except for a dose related, reversible rise in AST and ALT. […] This transaminase increase was not associated with changes in other liver function tests, nor was it associated with any liver related signs or symptoms. […] Steady-state was attained within 2 days.
# [7] = Once daily for 7 days multiple dose study, pharmacokinetics; type: in vivo; details: human
# Description: as §3
# [8] = Phase 1 single dose trial, pharmacokinetics; type: in vivo; details: human, 4 mg single dose
# Description: (§4) Thus, 4 mg would be efficacious in inhibiting TNFα production.
# [9] = Once daily for 7 days multiple dose study, safety and tolerability; type: in vivo, human
# Description: Transaminase levels peaked 2 to 4 days after the end of drug therapy on day 7 with resolution over the next 7 to 14 days.
# as §3
# [10] = system: TNFα release from LPS stimulated human PBMC; experiment: TNFα release from LPS stimulated human PBMC; type: cell-based
# TNFα [11] = experiment: Once daily for 7 days study, ex vivo LPS induced production of TNFα in human whole blood; details: any of the doses used (20, 50, 150 mg once daily for 7 days)
# Description: as §3
# [12] = system: TNFα release, monkey whole blood; experiment: TNFα release from LPS stimulated monkey whole blood; type: cell-based
# Source text: as §1
# TNFα [13] = experiment: Single dose rising trial (U00-1627), ex vivo TNFα inhibition; type: in vivo, human; details: single dose rising trial U00-1627
# Description: as §4
# This discrepancy between in vivo and ex vivo and in vivo and in vitro was also observed in cynomolgus monkeys (U99-3145).
# TNFα production [14] = experiment: Mouse model of LPS-induced TNFα production; type: in vivo; details: dosed orally 30 minutes prior to LPS challenge
# [15] = 150 mg once daily for 7 days, all 6 subjects
structure (smiles),measurement,setting,value
Cc1ccc(-n2nc(C(C)(C)C)cc2NC(=O)Nc2ccc(OCCN3CCOCC3)c3ccccc23)cc1 [BIRB 796 BS],IC50,[1],800 nM
same,Inhibition of plasma TNFα production,plasma TNFα production; 0.3 mg/kg IV just prior to LPS 400 ng/kg IV,not significantly inhibited
same,Inhibition of plasma TNFα production,"plasma TNFα production; 1 mg/kg IV just prior to LPS 400 ng/kg IV, p<0.005",85%
same,Inhibition of plasma TNFα production,"plasma TNFα production; 3 mg/kg IV just prior to LPS 400 ng/kg IV, p<0.005",90%
same,Subjects with transaminase values above the upper limit of normal,[2]; 15 mg twice daily group (16 per group),3 subjects
same,Subjects with transaminase values above the upper limit of normal,[2]; 30 mg twice daily group (16 per group),4 subjects
same,Tolerability,[2]; doses up to 30 mg twice daily for two weeks,well tolerated
same,Inhibition of TNFα production,"TNFα production [3]; 1 mg/kg PO 12 hours prior to IV LPS, NS",44%
same,Inhibition of TNFα production,"TNFα production [3]; 3 mg/kg PO 12 hours prior to IV LPS, p<0.05",61%
same,Inhibition of TNFα production,"TNFα production [3]; 20 mg/kg PO 12 hours prior to IV LPS, p<0.01",84%
same,Peak plasma level,TNFα production [3]; 1 mg/kg PO chewable tablets,0.003 µM
same,Peak plasma level,TNFα production [3]; 3 mg/kg PO chewable tablets,0.02 µM
same,Peak plasma level,TNFα production [3]; 20 mg/kg PO chewable tablets,1.4 µM
same,EC50 for inhibiting TNFα production in vivo,"TNFα production [4]; Emax model, plasma concentration ten minutes prior to LPS challenge",0.02372 µg/mL
same,"Emax (% Inhibition), TNFα","TNFα production [4]; Emax model, pre-LPS challenge plasma concentration vs percent inhibition of peak TNFα",95% and 95.34%
same,Inhibition of LPS-induced TNFα production,TNFα production [4]; 50 mg orally 3 hours prior to LPS challenge,88%
same,Inhibition of LPS-induced TNFα production,TNFα production [4]; 600 mg orally 3 hours prior to LPS challenge,97%
same,AUC0-12 (mean±SD) on day 14,[5]; 15 mg twice daily,334 ± 145 ng·h/mL
same,Cmax (mean±SD) on day 14,[5]; 15 mg twice daily,109 ± 51 ng/mL
same,AUC0-12 (mean±SD) on day 14,[5]; 30 mg twice daily,659 ± 449 ng·h/mL
same,Cmax (mean±SD) on day 14,[5]; 30 mg twice daily,208 ± 109 ng/mL
same,Mean elimination half-life,[5]; 15 or 30 mg twice daily for 14 days,7.3 h
same,Ex vivo neutrophil activation,[6]; 4 hours post dosing,dose dependent inhibition
same,Ex vivo neutrophil activation,"[6]; 24 hours post dosing, various dose levels",mixed pattern of neutrophil inhibition and activation
same,Day 7 mean AUC0-24,[7]; 20 mg once daily,364 ng·h/mL
same,Day 7 mean Cmax,[7]; 20 mg once daily,116 ng/mL
same,Day 7 mean AUC0-24,[7]; 50 mg once daily,1324 ng·h/mL
same,Day 7 mean Cmax,[7]; 50 mg once daily,308 ng/mL
same,Day 7 mean AUC0-24,[7]; 150 mg once daily,5924 ng·h/mL
same,Day 7 mean Cmax,[7]; 150 mg once daily,1108 ng/mL
same,Time to steady-state,[7]; once daily dosing,≤ 2 days
same,Cmax,[8],23.8 ± 5.71 ng/mL
same,Change in γ-GT,[9]; 150 mg daily for seven days,small increase in γ-GT
same,Elevations in AST and ALT,[9]; 150 mg daily for seven days,moderate elevations in AST and ALT
same,Tolerability,[9]; 150 mg for seven days,not considered well tolerated
same,Rise in ALT above the upper limit of normal,[9]; [15],≤ 3.5 fold
same,Rise in AST above the upper limit of normal,[9]; [15],≤ 2 fold
same,Tolerability,[9]; doses up to 50 mg (20 and 50 mg) daily for 7 days,well tolerated
same,IC50,[10],21 nM
same,Ex vivo inhibition of TNFα,TNFα [11],No inhibition
same,IC50,[12],4000 nM
same,Ex vivo inhibition of TNFα production,TNFα [13]; 50 mg,no inhibition was observed
same,EC50 calculated from ex-vivo inhibition of TNFα,TNFα [13],1.228 µg/mL
same,"ED50, inhibition of LPS-induced TNFα",TNFα production [14],approximately 10 mg/kg
